Assay results published in patent US8053599B2, “Drug containing (2R)-2-propyloctanoic acid as the active ingredient” (Ono Pharmaceutical Co., Ltd., priority 2003, dated 2011).

Legend:
[1] = confirmation test of micelle formation (fat staining with Sudan III, absorbance of supernatant); type: physicochemical
Excerpt: The fat staining method includes, for example, a method of mixing a solution of a fat-soluble dye (for example, Sudan III, piacyanol chloride, Rhodamine 6G, etc.) with the solution under test, followed by centrifugation after a certain period of time, and measuring the absorbance of the supernatant which is inherent to the fat-soluble dye used. If the absorbance of the supernatant can be measured according to this test method, it implies that the fat-soluble dye is present within micelles, that is, micelles have been formed, and thus it is possible to determine that a micelle water dispersion liquid has been formed. It is also possible to define the critical concentration of micelle formation, that is, a critical micelle concentration (CMC), by means of such a test.
The critical micelle concentration cannot be exactly determined since it depends on the substance forming micelles, the type of co-existing ions and the concentration thereof, the ionic strength, and even on temperature. […]
Into a spitz made of glass, the Sudan III solution prepared in the above (2) (400 μL) was added, and ethanol was evaporated Each of the (2R)-2-propyloctanoic acid solutions of various concentrations prepared in the above (1) was added thereto, and the mixture was subjected to sonication and stirring. […] The absorbance of the supernatant was measured at a wavelength of 502 nm.

[2] = test system: dog; assay: single intravenous administration toxicity using a dog; type: in vivo; settings: dose of 100 mg/kg
[3] = solubility and behaviour in water; type: physicochemical
Excerpt: The present inventors have attempted to prepare a medicament comprising (2R)-2-propyloctanoic acid or a salt thereof in a high concentration, which is useful for the treatment of neurodegenerative diseases including cerebral infarction, and which can be formulated to an injection which can be conveniently administered to a patient, if necessary, by means of the dissolution or dilution operation. […] The inventors have conducted studies to solve these problems and have found as a result that (2R)-2-propyloctanoic acid can be dissolved in water in a high concentration by mixing it with a strong alkali such as sodium hydroxide. […] Moreover, the solution in a high concentration was difficult to be stored for a long period of time because of the appearance of insoluble allotrio within the solution under long-term storage in conventional glass containers. Thus, there are problems in using a drug which is sensitive to a change in the drug concentration or in the pH of the solution, leading to a change such as clouding. That is, there is in fact the risk of clouding of the drug, upon preparing an injection which can be administered to a patient, by direct manipulation of a person involved in medical services, for combined use with other agents, or during the action of intravascular administration to a patient. […]

Structure (SMILES)	critical micelle concentration ([1]; aqueous medicament comprising about 1 to about 5 equivalents of basic sodium ion based on 1 equivalent of (2R)-2-propyloctanoic acid, room temperature) [mg/mL]	concentration at which micelle formation occurred ([1]; aqueous solution with trisodium phosphate dodecahydrate, Sudan III, left at room temperature for 1 day, absorbance at 502 nm)	death after single intravenous administration [2]	solubility in water ([3]; water)	pH and clouding of solution in water ([3]; dissolved in water)
CCCCCC[C@@H](CCC)C(=O)O [(2R)-2-propyloctanoic acid]	20 to 25	about 20 mg/mL	did not result in death	insoluble and immiscible in water	
CCCCCC[C@@H](CCC)C(=O)[O-].[Na+] [(2R)-2-propyloctanoic acid-sodium salt]					has a high pH and is susceptible to clouding under slight fluctuations of the pH
